# Data taken from US8268961B2, “Antibacterial peptides and analogues thereof” (Universita Degli Studi di Siena, priority 2004, dated 2012).
# Like-named read-outs stand apart in the source and are kept apart here. Positions of bridges follow the written chain, without caps; N, C: chain ends. Residues, ends and D or L forms follow the SMILES beside them. Chains are numbered I, II in the order given. No end group written: not given here.
# Legend:
# [1] = tested on: murine macrophage cells J774 A.1; assay: Cytotoxicity test by MTT; type: cell-based, mouse
# Description: (§1) The cytotoxicity of antibacterial MAP peptides was evaluated on different eukaryotic cell lines by a colorimetric assay (MTT). This assay measures the cells' ability to convert a soluble tetrazolium salt into an insoluble precipitate: formazan. The cytotoxicity of M1 was evaluated on murine macrophagic cells (J774 A.1), murine myeloma cells (SPO) and Chinese hamster ovary epithelium cells (CHO K1). As shown FIG. 4, even at high concentrations (1 mg/ml) M1 cytotoxicity on CHO K1 cells and on SPO cells is low (percent survival is 80-90%).
# (§2) For cytotoxicity tests, different cell lines were used: murine myeloma cells SPO, hamster ovary epithelium cells CHO K 1, murine macrophage cells J774 A.1 and human keratinocytes HaCaT. The cells were plated in medium in RPMI 1640 (SPO and CHO K 1) and DMEM (J774 A.1 and HaCaT) with antibiotics and bovine foetal serum at 10%, in 96-well plates at the concentration of 6×10^4 (SPO, CHO K1 and J774 A.1) and 3×10^4 (HaCaT). Peptides, previously filtered with a 0.2 μm filter disk (Whatman), were added at various concentrations to the different cell lines and left in incubation over night at 37° C. Cell viability was determined adding the MTT tetrazolium salt at the concentration of 0.5 mg/ml and incubating for 90 min. The cells were solubilised with a solution at pH 4.5 containing SDS 10% and dimethylformamide 45% and read at the dual wavelength of 595/650 nm with a plate reader.
# human erythrocytes = assay: Haemolysis, Parpart erythrocyte osmotic resistance assay; type: cell-based; details: 19 hours incubation, 125 μg/ml
# Description: The haemolytic activity of M5 and M6 was also evaluated and is represented FIG. 9. Haemolysis of fresh human erythrocytes was determined at peptide concentrations ranging from 1 to 125 μg/ml. […] By contrast, after 19 hours of incubation, the haemolysis induced by M6 and M5 at 125 μg/ml is 7% and 19%, respectively. The percentage of haemolysis of untreated blood after 19 hours (control) is very limited (<1%).
# The haemolytic activity of the KIRVRLSA [SEQ ID NO: 3] (M5) and […] [SEQ ID NO: 4] (M6) peptides was evaluated by the Parpart erythrocyte osmotic resistance assay in NaCl. The percentage of haemolysis was calculated by means of a calibration curve obtained incubating the erythrocytes with increasing concentrations of NaCl and measuring the absorbance increase, due to haemolysis, at 540 nm. 0.9% NaCl solutions containing the MAP peptides at different concentrations were then prepared, whereto was added human blood in the ratio of 1:100 (v/v). The samples were left at ambient temperature for 30 min and 19 hours; subsequently, a portion was drawn for each incubation, centrifuged at 1500 rpm for 5 min and the absorbance of the super was measured with the spectrophotometer at 540 nm.
# [2] = tested on: Escherichia coli W99FI0077; type: cell-based; details: Escherichia coli W99FI0077, FQR ESCR (ESBL/SHV type)
# Excerpt: (§3) MIC is defined as the lowest concentration, in an antibiotic dilution range, that inhibits visible bacterial growth. The importance of MIC sensitivity test is based on the principle that in vitro sensitivity provides a predictive indication of the in vivo efficacy of the antibiotic therapy. Values are expressed as molar concentration and compared to MIC values obtained with commercially available antibiotics such as amikacin, ceftriaxone and levofloxacin (Table 3).
# (§4) Reference strains (Escherichia coli ATCC 25922, Pseudomonas aeruginosa ATCC 27853, Staphylococus aureus ATCC 25923 and Chryseobacterium meningosepticum CCUG 4310) and several recent clinical isolates (including multidrug-resistant ones) of various species (Table 2) were used for conventional susceptibility testing experiments. Minimum Inhibitory Concentration (MIC) was determined by a standard microdilution assay as recommended by the National Commitee for Clinical Laboratory Standards (NCCLS) using cation-supplemented Mueller-Hinton (MH) broth (Oxoid Ltd. Basingstoke, UK) and a bacterial inoculum of 5×10^4 CFU per well, in a final volume of 100 μl. Results were recorded by visual inspection after 24 h of incubation at 37° C.
# [3] = tested on: Escherichia coli ATCC 25922; type: cell-based; details: Escherichia coli ATCC 25922, reference strain
# Excerpt: as §3, §4
# [4] = tested on: Pseudomonas aeruginosa 885149; type: cell-based; details: Pseudomonas aeruginosa 885149, FQR AGR ESCR CPR (MBL/IMP-13)
# Excerpt: as §3, §4
# [5] = tested on: Staphylococcus aureus ATCC 25923; type: cell-based; details: Staphylococcus aureus ATCC 25923, reference strain
# Excerpt: as §3, §4
# [6] = tested on: Pseudomonas aeruginosa 891; type: cell-based; details: Pseudomonas aeruginosa 891, FQR AGR ESCR CPR (MBL/VIM-2)
# Excerpt: as §3, §4
# [7] = tested on: Pseudomonas aeruginosa ATCC27853; type: cell-based; details: Pseudomonas aeruginosa ATCC27853, reference strain
# Excerpt: as §3, §4
# [8] = tested on: Klebsiella pneumoniae W99FI0057; type: cell-based; details: Klebsiella pneumoniae W99FI0057, ESCR (ESBL/SHV type)
# Excerpt: as §3, §4
# [9] = tested on: Staphylococus aureus MIU-68A; type: cell-based, Staphylococcus aureus; details: Staphylococus aureus MIU-68A, meticillin-susceptible
# Excerpt: as §3, §4
# [10] = tested on: human keratinocytes HaCaT; assay: Cytotoxicity test by MTT; type: cell-based; details: up to 1 mg/ml
# Description: as §2
# [11] = tested on: Pichia pastoris yeast strain X33; assay: Effect on Pichia pastoris yeast colonies; type: cell-based; details: Pichia pastoris X33, data not shown
# Description: To a volume of 50 μl of culture of Pichia pastoris grown 24 hour at 30° C. in YPD (Yeast Extract/Peptone/Dextrose) medium, 50 μl of MAP peptides (2 mg/ml) were added and left in incubation 150 min at 37° C. Subsequently, 50 μl of each incubation were plated on YPD solid medium and it was allowed to grow for 48 hours at 30° C. The number of colonies grown was compared with a control, where the yeast was not treated with the MAP.
# P. aeruginosa ATCC 27853 = assay: Minimal bactericidal concentration (MBC); type: cell-based
# Description: as §4
# (§5) The MBC was determined as recommended by the National Committee for Clinical Laboratory Standards (NCCLS) on strains of E. coli ATCC 25922 and P. aeruginosa ATCC 27853.
# E. coli ATCC 25922 = assay: Minimal bactericidal concentration (MBC); type: cell-based
# Description: as §4, §5
# E. coli strain TG1 [12] = assay: Test of antibacterial activity (colony growth inhibition) on E. coli strain TG1; type: cell-based; details: for Antibacterial activity on E. coli TG1 colony growth: E. coli TG1, colony counting vs control without peptide
# Description: The antimicrobic activity of the peptides in linear form (L1, L4, L5, L6) and in MAP form (M1, M4, M5, M6) was assayed on the TG1 strain of E. coli. The peptides were incubated at various concentrations (2-1-0.5-0.25-0.12 mg/ml) with cells of E. coli (OD600=0.2) for about 1 hour at 37° C. Subsequently, the cells were plated on agar at dilution such to allow counting of individual colonies. The antimicrobic activity of the synthesised peptide L 1 and M1 is shown FIG. 1 and is compared to a non correlated MAP peptide (MNC) used as negative control.
# In one example, the tetrabranched MAP peptides with the amino acid sequence: QAKIRVRLSA [SEQ ID NO: 2], KIRVRLSA [SEQ ID NO: 3], QKKIRVRLSA [SEQ ID NO: 4] are used individually in a bacterial colony growth inhibition test. The test is conducted by incubating different concentrations of MAP peptides with E. coli (strain TG1) and plating bacterial cells on agar at a dilution such to allow for individual colonies counting. The following day, the number of colonies grown after treatment with the three MAP peptides is compared.
# Antimicrobic tests were conducted incubating for 75 min at 37° C., 25 μL of E. coli at the OD600 of 0.2 with 25 μl of MAP peptide dissolved in PBS at the various concentrations. The different incubations were further diluted 1:1000 in 2×TY medium and 100 μl were plated on solid 2×TY medium. The plates were left overnight at 30° C. and the individual grown colonies were counted and compared with a control, not treated with MAP peptide.
# Cytotoxicity test by MTT = type: cell-based, mouse; details: mouse, J774 A.1 murine macrophage cells
# Description: as §1, §2
# in vitro = type: cell-based
# Description: as §1
# as §2, with “Peptides, previously filtered with a 0.2 μm filter disk (Whatman), were added at various concentrations to the different cell lines and left in incubation over night at 37° C.” left out
# E. coli strain TG1 [13] = assay: Stability of peptide in solution (time course of antibacterial activity); type: physicochemical; details: PBS 0.5 mg/ml, 1, 48 and 72 hours
# Description: FIG. 6. Stability of M1 peptide in solution. Time course of antibacterial activity of M1 on E. coli strain TG1. MAP M1 peptide was dissolved in PBS at a concentration of 0.5 mg/ml and bactericide activity was measured 1, 48 and 72 hours after re-suspension in PBS.
# FIG. 8. Stability of M4, M5 and M6 peptides in solution. Time course of antibacterial activity of M4, M5 and M6 on E. coli strain TG1. M4, M5 and M6 peptides were dissolved in PBS at a concentration of 0.5 mg/ml and bactericide activity was measured 1, 48 and 144 hours after re-suspension in PBS.
# [14] = Stability to plasmatic protease (HPLC); type: in vitro ADME, human
# Description: Since the use of peptides as therapeutic agents is severely limited by their in vivo half-life, the stability to human serum protease of the linear peptide L1 and of the MAP peptides M1, M4, M5 and M6 was evaluated. The peptides were incubated at the concentration of 10 mM with plasma and with human serum for 2 and 24 hours; the samples were subsequently analysed in HPLC on column C18 (see materials and methods) to evaluate the presence of linear and MAP peptide not digested by the protease.
# The various peptides in MAP form and the linear peptide (L1) were dissolved in H2O at the concentration of 10 mM and incubated with 10 μl of plasma and human serum for 2 and 24 hours at 37° C. To each sample were added 150 μl of methanol to block the proteolytic reaction; each sample was then centrifuged at 13,000 rpm for 2 min and to the supernatant were added 0.75 ml of 0.1% trifluoroacetic acid. The samples were analysed in reverse phase HPLC on a Vydac C18 semi-preparative column using a 30 min gradient of buffer B from 20% to 95% (buffer A: 0.1% trifluoroacetic acid/water; buffer B: 0.1% trifluoroacetic acid/methanol), to evaluate the presence of linear and MAP peptide after the proteolytic treatment.
compound,measurement,setting,value
"CC[C@H](C)[C@H](NC(=O)[C@@H](N)CCCCN)C(=O)N[C@@H](CCCNC(=N)N)C(=O)N[C@H](C(=O)N[C@@H](CCCNC(=N)N)C(=O)N[C@@H](CC(C)C)C(=O)N[C@@H](CO)C(=O)N[C@@H](C)C(=O)NCCCC[C@H](NC(=O)[C@H](C)NC(=O)[C@H](CO)NC(=O)[C@H](CC(C)C)NC(=O)[C@H](CCCNC(=N)N)NC(=O)[C@@H](NC(=O)[C@H](CCCNC(=N)N)NC(=O)[C@@H](NC(=O)[C@@H](N)CCCCN)[C@@H](C)CC)C(C)C)C(=O)NCCCC[C@H](NC(=O)[C@H](CCCCNC(=O)[C@H](C)NC(=O)[C@H](CO)NC(=O)[C@H](CC(C)C)NC(=O)[C@H](CCCNC(=N)N)NC(=O)[C@@H](NC(=O)[C@H](CCCNC(=N)N)NC(=O)[C@@H](NC(=O)[C@@H](N)CCCCN)[C@@H](C)CC)C(C)C)NC(=O)[C@H](C)NC(=O)[C@H](CO)NC(=O)[C@H](CC(C)C)NC(=O)[C@H](CCCNC(=N)N)NC(=O)[C@@H](NC(=O)[C@H](CCCNC(=N)N)NC(=O)[C@@H](NC(=O)[C@@H](N)CCCCN)[C@@H](C)CC)C(C)C)C(=O)N[C@@H](C)C(=O)O)C(C)C [M5, KIRVRLSA] (I: H-KIRVRLSAKKA-OH / II: H-KIRVRLSAK / III: H-KIRVRLSA / IV: H-KIRVRLSA; amide I:9-IV:C, I:10-II:C, II:9-III:C; N-terminus assumed)",Effect on cell viability (MTT),"[1]; J774.A1, overnight, 30 μg/ml",did not substantially affect cell viability
same,Vitality of J774 A.1 cells as the concentration of MAP peptides increases (MTT),[1]; J774 A.1,decreases
same,haemolysis of human erythrocytes,human erythrocytes,19%
same,MIC (Molarity),[2],31 µM
same,MIC (Molarity),[3],3.8 µM
same,MIC (Molarity),[4],7.6 µM
same,MIC (Molarity),[5],3.1e-05 M
same,MIC (Molarity),[5]; listed as KIRVRLSA,~10^−5 M
same,MIC (Molarity),[6],3.8 µM
same,MIC (Molarity),[7],3.8 µM
same,MIC (Molarity),[8],>31 µM
same,MIC (Molarity),[9],31 µM
same,Toxicity for human keratinocyte HaCaT cells (MTT),[10],low toxicity
same,Toxicity for human keratinocyte HaCaT cells (MTT),[10]; listed as KIRVRLSA,particularly resistant
same,Number of yeast colonies vs negative control,[11],did not differ from the negative control
same,MBC (minimal concentration able to kill 99.9% of the inoculum) compared with MIC,P. aeruginosa ATCC 27853,equal to the calculated values of MIC
same,MBC (minimal concentration able to kill 99.9% of the inoculum) compared with MIC,P. aeruginosa ATCC 27853; listed as KIRVRLSA,equal to the corresponding MIC values
same,MBC (minimal concentration able to kill 99.9% of the inoculum) compared with MIC,E. coli ATCC 25922,equal to the calculated values of MIC
same,MBC (minimal concentration able to kill 99.9% of the inoculum) compared with MIC,E. coli ATCC 25922; listed as KIRVRLSA,equal to the corresponding MIC values
same,Antibacterial activity on E. coli TG1 colony growth,E. coli strain TG1 [12],good antibacterial activity
"I: QEKIRVRLSAKKA-OH / II: QEKIRVRLSAK / III: QEKIRVRLSA / IV: QEKIRVRLSA (amide I:11-IV:C, I:12-II:C, II:11-III:C) [M1]",viability at 1000 µg/mL,Cytotoxicity test by MTT,~50%
same,viability at 1000 µg/mL,in vitro; CHO K1 cells (Chinese hamster ovary epithelium),80 to 90%
same,viability at 1000 µg/mL,"in vitro; mouse, SPO murine myeloma cells",80 to 90%
same,Stability in solution: antibacterial activity over time after resuspension,E. coli strain TG1 [13],drop in activity over time
same,Resistance to plasmatic protease: Plasma 2 h,[14],+
same,Concentration down to which TG1 E. coli colony growth is prevented,"E. coli strain TG1 [12]; E. coli TG1, MAP form",less effective
same,Antibacterial activity on E. coli TG1 colony growth,E. coli strain TG1 [12],inhibited significantly
